Results published in PubChem BioAssay AID2060344 (Molecular Pharmacology Branch, DTP, NCI, 2025).

Test system: SK-MEL-2 multi-cell spheroids, viability
Assay: Anticancer human tumor SK-MEL-2 cell line growth inhibition [TAK];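 note: spheroids exposed to drugs for seven days before readout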;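 for viability, T/C: percent of DMSO vehicle control luminescence so 100% = untreated viability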
Details: for IC50: curve of first compound; for viability, T/C: stronger effect = lower value
In short: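 Drug combinations, each paired with TAK-243 or ipatasertib, were tested on multi-cell spheroids of 60% malignant cells, 25% HUVEC and 15% hMSC. Top concentrations were at or near the clinical Cmax (10 microM if undetermined), decreasing by half-log; viability is given as % test/control.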

[1] = second compound 0.3 µM, first compound 0.0316 µM
[2] = second compound 0.3 µM, first compound 0.1 µM
[3] = second compound 0.3 µM, first compound 0.316 µM
[4] = second compound 0.3 µM, first compound 1 µM
[5] = second compound 0.3 µM, first compound 3.16 µM
[6] = second compound 0.3 µM, first compound 10 µM
[7] = second compound 0.949 µM, first compound 0.0316 µM
[8] = second compound 0.949 µM, first compound 0.1 µM
[9] = second compound 0.949 µM, first compound 0.316 µM
[10] = second compound 0.949 µM, first compound 1 µM
[11] = second compound 0.949 µM, first compound 3.16 µM
[12] = second compound 0.949 µM, first compound 10 µM
[13] = second compound 3 µM, first compound 0.0316 µM
[14] = second compound 3 µM, first compound 0.1 µM
[15] = second compound 3 µM, first compound 0.316 µM
[16] = second compound 3 µM, first compound 1 µM
[17] = second compound 3 µM, first compound 3.16 µM
[18] = second compound 3 µM, first compound 10 µM
[19] = second compound 9.49 µM, first compound 0.0316 µM
[20] = second compound 9.49 µM, first compound 0.1 µM
[21] = second compound 9.49 µM, first compound 0.316 µM
[22] = second compound 9.49 µM, first compound 1 µM
[23] = second compound 9.49 µM, first compound 3.16 µM
[24] = second compound 9.49 µM, first compound 10 µM
[25] = second compound 30 µM, first compound 0.0316 µM
[26] = second compound 30 µM, first compound 0.1 µM
[27] = second compound 30 µM, first compound 0.316 µM
[28] = second compound 30 µM, first compound 1 µM
[29] = second compound 30 µM, first compound 3.16 µM
[30] = second compound 30 µM, first compound 10 µM
[31] = second compound 0.3 µM, first compound 0.000316 µM
[32] = second compound 0.3 µM, first compound 0.001 µM
[33] = second compound 0.3 µM, first compound 0.00316 µM
[34] = second compound 0.3 µM, first compound 0.01 µM
[35] = second compound 0.949 µM, first compound 0.000316 µM
[36] = second compound 0.949 µM, first compound 0.001 µM
[37] = second compound 0.949 µM, first compound 0.00316 µM
[38] = second compound 0.949 µM, first compound 0.01 µM
[39] = second compound 3 µM, first compound 0.000316 µM
[40] = second compound 3 µM, first compound 0.001 µM
[41] = second compound 3 µM, first compound 0.00316 µM
[42] = second compound 3 µM, first compound 0.01 µM
[43] = second compound 9.49 µM, first compound 0.000316 µM
[44] = second compound 9.49 µM, first compound 0.001 µM
[45] = second compound 9.49 µM, first compound 0.00316 µM
[46] = second compound 9.49 µM, first compound 0.01 µM
[47] = second compound 30 µM, first compound 0.000316 µM
[48] = second compound 30 µM, first compound 0.001 µM
[49] = second compound 30 µM, first compound 0.00316 µM
[50] = second compound 30 µM, first compound 0.01 µM

Question: For `CC(C)(C)c1nc(-c2cccc(NS(=O)(=O)c3c(F)cccc3F)c2F)c(-c2ccnc(N)n2)s1` + CC(C)NCC(C(=O)N1CCN(c2ncnc3c2C(C)CC3O)CC1)c1ccc(Cl)cc1, which IC50 (second compound 0.3 µM) is on record?
Answer: 590 nM

Question: And the IC50 (second compound 0.949 µM)?
Answer: 496 nM

Question: What about the IC50 (second compound 3 µM) of the same compound?
Answer: 323 nM

Question: What about the IC50 (second compound 9.49 µM) of the same compound?
Answer: 285 nM

Question: What about the IC50 (second compound 30 µM) of the same compound?
Answer: 230 nM

Question: And the viability, T/C [1]?
Answer: 138%

Question: What about the viability, T/C [2] of the same compound?
Answer: 118%

Question: What about the viability, T/C [3] of the same compound?
Answer: 75.9%

Question: What about the viability, T/C [4] of the same compound?
Answer: 28.6%

Question: What about the viability, T/C [5] of the same compound?
Answer: 12.5%

Question: What about the viability, T/C [6] of the same compound?
Answer: 17.2%

Question: What about the viability, T/C [7] of the same compound?
Answer: 119%

Question: What about the viability, T/C [8] of the same compound?
Answer: 109%

Question: And the viability, T/C [9]?
Answer: 66.3%

Question: And the viability, T/C [10]?
Answer: 25.6%

Question: What about the viability, T/C [11] of the same compound?
Answer: 8.33%

Question: What about the viability, T/C [12] of the same compound?
Answer: 15.6%

Question: What about the viability, T/C [13] of the same compound?
Answer: 108%

Question: What about the viability, T/C [14] of the same compound?
Answer: 105%

Question: What about the viability, T/C [15] of the same compound?
Answer: 50.1%

Question: What about the viability, T/C [16] of the same compound?
Answer: 15.7%

Question: What about the viability, T/C [17] of the same compound?
Answer: 6.41%

Question: And the viability, T/C [18]?
Answer: 11.7%

Question: What about the viability, T/C [19] of the same compound?
Answer: 88.1%

Question: And the viability, T/C [20]?
Answer: 85.5%

Question: And the viability, T/C [21]?
Answer: 46.5%

Question: And the viability, T/C [22]?
Answer: 9.65%

Question: What about the viability, T/C [23] of the same compound?
Answer: 4.3%

Question: And the viability, T/C [24]?
Answer: 10.2%

Question: And the viability, T/C [25]?
Answer: 73.1%

Question: And the viability, T/C [26]?
Answer: 73.8%

Question: What about the viability, T/C [27] of the same compound?
Answer: 41.1%

Question: And the viability, T/C [28]?
Answer: 9.6%

Question: What about the viability, T/C [29] of the same compound?
Answer: 5.11%

Question: What about the viability, T/C [30] of the same compound?
Answer: 10%

Question: `CC(C)CC(NC(=O)CNC(=O)c1cc(Cl)ccc1Cl)B1OC(=O)CC(CC(=O)O)(C(=O)O)O1` (stereo not given) + CC(C)NCC(C(=O)N1CCN(c2ncnc3c2C(C)CC3O)CC1)c1ccc(Cl)cc1 was tested. Which IC50 (second compound 0.3 µM) did it give?
Answer: 17.1 nM

Question: And the IC50 (second compound 0.949 µM)?
Answer: 12.8 nM

Question: And the IC50 (second compound 3 µM)?
Answer: 5.07 nM

Question: What about the IC50 (second compound 9.49 µM) of the same compound?
Answer: 2.04 nM

Question: What about the IC50 (second compound 30 µM) of the same compound?
Answer: < 0.316 nM

Question: And the viability, T/C [31]?
Answer: 94.8%

Question: And the viability, T/C [32]?
Answer: 94.7%

Question: And the viability, T/C [33]?
Answer: 85%

Question: And the viability, T/C [34]?
Answer: 64.9%

Question: And the viability, T/C [1]?
Answer: 32.8%

Question: And the viability, T/C [2]?
Answer: 5.51%

Question: And the viability, T/C [35]?
Answer: 81.3%

Question: What about the viability, T/C [36] of the same compound?
Answer: 76.5%

Question: And the viability, T/C [37]?
Answer: 70.3%

Question: And the viability, T/C [38]?
Answer: 59.5%

Question: What about the viability, T/C [7] of the same compound?
Answer: 20.2%

Question: What about the viability, T/C [8] of the same compound?
Answer: 6.05%

Question: What about the viability, T/C [39] of the same compound?
Answer: 70%

Question: And the viability, T/C [40]?
Answer: 67%

Question: And the viability, T/C [41]?
Answer: 53.8%

Question: What about the viability, T/C [42] of the same compound?
Answer: 43.3%

Question: What about the viability, T/C [13] of the same compound?
Answer: 20.2%

Question: And the viability, T/C [14]?
Answer: 5.6%

Question: And the viability, T/C [43]?
Answer: 52.6%

Question: And the viability, T/C [44]?
Answer: 55.7%

Question: And the viability, T/C [45]?
Answer: 44.2%

Question: And the viability, T/C [46]?
Answer: 40.3%

Question: And the viability, T/C [19]?
Answer: 17.9%

Question: And the viability, T/C [20]?
Answer: 5.27%

Question: And the viability, T/C [47]?
Answer: 47.8%

Question: And the viability, T/C [48]?
Answer: 47.5%

Question: What about the viability, T/C [49] of the same compound?
Answer: 41.7%

Question: And the viability, T/C [50]?
Answer: 33.5%

Question: What about the viability, T/C [25] of the same compound?
Answer: 14.4%

Question: And the viability, T/C [26]?
Answer: 4.44%

Question: Which results are given for `CC(C)n1nc(-c2ccc3oc(N)nc3c2)c2c(N)ncnc21` + CC(C)NCC(C(=O)N1CCN(c2ncnc3c2C(C)CC3O)CC1)c1ccc(Cl)cc1?
Answer: IC50 (second compound 0.3 µM): 29.5 nM; IC50 (second compound 0.949 µM): 10.7 nM; IC50 (second compound 3 µM): 3.22 nM; IC50 (second compound 9.49 µM): 1.31 nM; IC50 (second compound 30 µM): 0.858 nM; viability, T/C [31]: 98.6%; viability, T/C [32]: 92.4%; viability, T/C [33]: 82.1%; viability, T/C [34]: 76.8%; viability, T/C [1]: 45.8%; viability, T/C [2]: 25.5%; viability, T/C [35]: 85.6%; viability, T/C [36]: 82%; viability, T/C [37]: 58.7%; viability, T/C [38]: 55.6%; viability, T/C [7]: 33.4%; viability, T/C [8]: 19%; viability, T/C [39]: 66%; viability, T/C [40]: 62.3%; viability, T/C [41]: 48.5%; viability, T/C [42]: 37.8%; viability, T/C [13]: 27.2%; viability, T/C [14]: 12.5%; viability, T/C [43]: 56.3%; viability, T/C [44]: 54.4%; viability, T/C [45]: 42.2%; viability, T/C [46]: 34.7%; viability, T/C [19]: 25.1%; viability, T/C [20]: 13.6%; viability, T/C [47]: 52.6%; viability, T/C [48]: 51.4%; viability, T/C [49]: 41.2%; viability, T/C [50]: 32.9%; viability, T/C [25]: 20.7%; viability, T/C [26]: 9.08%

Question: How did the IC50 (second compound 0.3 µM) turn out when `CCCS(=O)(=O)Nc1ccc(F)c(C(=O)c2c[nH]c3ncc(-c4ccc(Cl)cc4)cc23)c1F` + CC(C)NCC(C(=O)N1CCN(c2ncnc3c2C(C)CC3O)CC1)c1ccc(Cl)cc1 was run?
Answer: 25900 nM

Question: And the IC50 (second compound 0.949 µM)?
Answer: 24000 nM

Question: What about the IC50 (second compound 3 µM) of the same compound?
Answer: 13100 nM

Question: What about the IC50 (second compound 9.49 µM) of the same compound?
Answer: 64500 nM

Question: What about the IC50 (second compound 30 µM) of the same compound?
Answer: 18800 nM

Question: What about the viability, T/C [3] of the same compound?
Answer: 127%

Question: And the viability, T/C [4]?
Answer: 108%

Question: What about the viability, T/C [5] of the same compound?
Answer: 105%

Question: And the viability, T/C [6]?
Answer: 118%

Question: And the viability, T/C (second compound 0.3 µM, first compound 31.6 µM)?
Answer: 15.1%

Question: And the viability, T/C (second compound 0.3 µM, first compound 100 µM)?
Answer: 57.5%

Question: And the viability, T/C [9]?
Answer: 121%

Question: What about the viability, T/C [10] of the same compound?
Answer: 110%

Question: What about the viability, T/C [11] of the same compound?
Answer: 107%

Question: What about the viability, T/C [12] of the same compound?
Answer: 80.3%

Question: And the viability, T/C (second compound 0.949 µM, first compound 31.6 µM)?
Answer: 31.6%

Question: And the viability, T/C (second compound 0.949 µM, first compound 100 µM)?
Answer: 49.3%

Question: And the viability, T/C [15]?
Answer: 115%

Question: And the viability, T/C [16]?
Answer: 110%

Question: And the viability, T/C [17]?
Answer: 105%

Question: And the viability, T/C [18]?
Answer: 61.1%

Question: And the viability, T/C (second compound 3 µM, first compound 31.6 µM)?
Answer: 14.3%

Question: What about the viability, T/C (second compound 3 µM, first compound 100 µM) of the same compound?
Answer: 10.9%

Question: What about the viability, T/C [21] of the same compound?
Answer: 112%

Question: What about the viability, T/C [22] of the same compound?
Answer: 120%

Question: What about the viability, T/C [23] of the same compound?
Answer: 107%

Question: And the viability, T/C [24]?
Answer: 114%

Question: And the viability, T/C (second compound 9.49 µM, first compound 31.6 µM)?
Answer: 120%

Question: What about the viability, T/C (second compound 9.49 µM, first compound 100 µM) of the same compound?
Answer: 10.4%

Question: And the viability, T/C [27]?
Answer: 121%

Question: And the viability, T/C [28]?
Answer: 124%

Question: What about the viability, T/C [29] of the same compound?
Answer: 64.3%

Question: And the viability, T/C [30]?
Answer: 119%

Question: What about the viability, T/C (second compound 30 µM, first compound 31.6 µM) of the same compound?
Answer: 2.99%

Question: What about the viability, T/C (second compound 30 µM, first compound 100 µM) of the same compound?
Answer: 2.24%
